The conditions of the data set: for surface tension liquid-gas: Pendant drop shape; for mass density: 101.33 kPa, Liquid, Vibrating tube method.

Usually surface tension liquid-gas stands for the force per length acting along the surface. The mass density is mass per unit of volume.

Each structure is given as a SMILES string. Numbers after ± are expanded uncertainties.

`BrCCBr` [1,2-dibromoethane]: the surface tension liquid-gas is, setting by setting: (293.15 K) 38.81 ± 0.7 mN/m; (298.15 K) 38.07 ± 0.69 mN/m; (303.15 K) 37.48 ± 0.68 mN/m; (308.15 K) 36.75 ± 0.67 mN/m; (313.15 K) 36.1 ± 0.66 mN/m.

Take `ClCCCl` [1,2-dichloroethane]: the surface tension liquid-gas by setting is: (293.15 K) 28 ± 0.52 mN/m; (298.15 K) 27.57 ± 0.51 mN/m; (303.15 K) 27.06 ± 0.5 mN/m; (308.15 K) 26.54 ± 0.49 mN/m; (313.15 K) 26.02 ± 0.48 mN/m.

Take `BrCCCBr` [1,3-dibromopropane]: the surface tension liquid-gas was 39.66 ± 0.72 mN/m (293.15 K); 38.95 ± 0.71 mN/m (298.15 K); 38.33 ± 0.7 mN/m (303.15 K); 37.6 ± 0.68 mN/m (308.15 K); 37.12 ± 0.68 mN/m (313.15 K).

Consider `ClCCCCl` [1,3-dichloropropane], for which the mass density runs as follows: (288.15 K) 1189.09 ± 1.1 kg/m3; (293.15 K) 1184.88 ± 1.1 kg/m3; (298.15 K) 1178.97 ± 1.1 kg/m3; (303.15 K) 1173.1 ± 1.1 kg/m3; (308.15 K) 1167.26 ± 1.1 kg/m3; (313.15 K) 1161.46 ± 1.1 kg/m3. Further, the mass density runs as follows: (318.15 K) 1154.88 ± 1.1 kg/m3; (328.15 K) 1142.62 ± 1.1 kg/m3. The surface tension liquid-gas (293.15 K) stood at 31.22 ± 0.57 mN/m; the surface tension liquid-gas (298.15 K) worked out at 30.77 ± 0.57 mN/m; the surface tension liquid-gas (303.15 K) is recorded as 30.2 ± 0.56 mN/m; the surface tension liquid-gas (308.15 K) came to 29.36 ± 0.54 mN/m; the surface tension liquid-gas (313.15 K) was determined as 28.7 ± 0.53 mN/m.

As for `BrCCCCBr` [1,4-dibromobutane], the surface tension liquid-gas is recorded as 39.91 ± 0.72 mN/m (293.15 K); 39.46 ± 0.72 mN/m (298.15 K); 38.92 ± 0.71 mN/m (303.15 K); 38.29 ± 0.7 mN/m (308.15 K); 37.67 ± 0.68 mN/m (313.15 K).

Turning to `ClCCCCCl` [1,4-dichlorobutane], the surface tension liquid-gas (293.15 K) worked out at 33.73 ± 0.62 mN/m; the surface tension liquid-gas (298.15 K) stood at 33.15 ± 0.61 mN/m; the surface tension liquid-gas (303.15 K) was found to be 32.55 ± 0.6 mN/m; the surface tension liquid-gas (308.15 K) is given as 32.1 ± 0.59 mN/m; the surface tension liquid-gas (313.15 K) is listed as 31.59 ± 0.58 mN/m.

Turning to `BrCCCCCBr` [1,5-dibromopentane], the surface tension liquid-gas by setting is: (293.15 K) 39.37 ± 0.71 mN/m; (298.15 K) 38.65 ± 0.7 mN/m; (303.15 K) 38.16 ± 0.69 mN/m; (308.15 K) 37.6 ± 0.68 mN/m; (313.15 K) 37.23 ± 0.68 mN/m.

On to `ClCCCCCCl` [1,5-dichloropentane], for which the mass density (288.15 K) worked out at 1103.31 ± 1 kg/m3; the mass density (293.15 K) came out at 1100.06 ± 1 kg/m3; the mass density (298.15 K) was determined as 1095.01 ± 1 kg/m3; the mass density (303.15 K) was determined as 1089.95 ± 1 kg/m3; the mass density (308.15 K) was 1084.89 ± 1 kg/m3; the mass density (313.15 K) is on record as 1079.84 ± 1 kg/m3. In addition, the mass density stood at 1074.67 ± 1 kg/m3 (318.15 K) and 1064.63 ± 1 kg/m3 (328.15 K). Further, the surface tension liquid-gas is 35.02 ± 0.64 mN/m (293.15 K); 34.43 ± 0.63 mN/m (298.15 K); 33.85 ± 0.62 mN/m (303.15 K); 33.22 ± 0.61 mN/m (308.15 K); 32.78 ± 0.6 mN/m (313.15 K).

On to `BrCCCCCCBr` [1,6-dibromohexane], for which the surface tension liquid-gas was 38.92 ± 0.71 mN/m (293.15 K); 38.36 ± 0.7 mN/m (298.15 K); 37.78 ± 0.69 mN/m (303.15 K); 37.21 ± 0.68 mN/m (308.15 K); 36.63 ± 0.67 mN/m (313.15 K).

As for `ClCCCCCCCl` [1,6-dichlorohexane], the surface tension liquid-gas runs as follows: (293.15 K) 35 ± 0.71 mN/m; (298.15 K) 34.31 ± 0.69 mN/m; (303.15 K) 33.73 ± 0.68 mN/m; (308.15 K) 33.09 ± 0.67 mN/m; (313.15 K) 32.7 ± 0.66 mN/m.

On to `BrCBr` [dibromomethane], for which the surface tension liquid-gas is, setting by setting: (293.15 K) 38.5 ± 0.7 mN/m; (298.15 K) 37.76 ± 0.69 mN/m; (303.15 K) 37.09 ± 0.68 mN/m; (308.15 K) 36.32 ± 0.66 mN/m; (313.15 K) 35.55 ± 0.65 mN/m.

Consider `CCCCCCO` [hexan-1-ol], for which the surface tension liquid-gas (288.15 K) turned out to be 26.34 ± 0.49 mN/m; the surface tension liquid-gas (293.15 K) is 26.06 ± 0.48 mN/m; the surface tension liquid-gas (298.15 K) worked out at 25.71 ± 0.48 mN/m; the surface tension liquid-gas (303.15 K) was found to be 25.34 ± 0.47 mN/m; the surface tension liquid-gas (308.15 K) is given as 24.9 ± 0.5 mN/m; the surface tension liquid-gas (313.15 K) is listed as 24.52 ± 0.46 mN/m. Further, the surface tension liquid-gas (318.15 K) is given as 24.12 ± 0.45 mN/m. For the same molecule, where the note is “298.15 K”, the mass density is listed as 815.18 ± 1 kg/m3.

Regarding `CCCCCO` [pentan-1-ol], the surface tension liquid-gas (293.15 K) came to 25.17 ± 0.47 mN/m; the surface tension liquid-gas (298.15 K) is on record as 24.85 ± 0.46 mN/m; the surface tension liquid-gas (303.15 K) is given as 24.4 ± 0.5 mN/m; the surface tension liquid-gas (308.15 K) was determined as 23.96 ± 0.45 mN/m; the surface tension liquid-gas (313.15 K) stood at 23.62 ± 0.44 mN/m; the surface tension liquid-gas (318.15 K) was determined as 23.28 ± 0.44 mN/m. Also, the mass density (298.15 K) worked out at 810.84 ± 1 kg/m3.

In the case of `O` [water], the surface tension liquid-gas is, setting by setting: (288.15 K) 73.43 ± 1.2 mN/m; (293.15 K) 72.84 ± 1.2 mN/m; (298.15 K) 72.14 ± 1.2 mN/m.

These data come from the NIST ThermoML archive (doi:10.1016/j.jct.2018.12.042).
